In the NIST ThermoML archive (doi:10.1016/j.jct.2017.03.034):

Experiment: molar heat capacity at constant pressure
Conditions: Liquid, Large sample (1 g) DSC

CCCCCCCCCCCCCCCC [hexadecane]
molar heat capacity at constant pressure [J/K/mol]
Conditions | 130 kPa | 10090 kPa
323.15 K | 513.57 | 512.21
328.15 K | 517.19 | 515.83
333.15 K | 520.81 | 519.46
338.15 K | 524.66 | 523.31
343.15 K | 528.51 | 526.48
348.15 K | 532.82 | 530.1
353.15 K | 536.44 | 534.4
358.15 K | 540.74 | 538.48
363.15 K | 544.59 | 542.1
368.15 K | 548.67 | 546.4
373.15 K | 553.2 | 550.7
378.15 K | 557.27 | 554.55
383.15 K | 561.57 | 558.86
388.15 K | 565.65 | 563.16
393.15 K | 569.73 | 567.24
398.15 K | 574.03 | 571.31
403.15 K | 578.56 | 575.61
408.15 K | 583.09 | 579.92
413.15 K | 586.94 | 584.44
418.15 K | 591.46 | 588.97
423.15 K | 595.77 | 593.05
428.15 K | 599.62 | 596.45
433.15 K | 603.92 | 600.3
438.15 K | 608.67 | 604.6
443.15 K | 613.2 | 609.35
448.15 K | 617.28 | 613.66
453.15 K | 622.26 | 617.05
458.15 K | – | 621.35
463.15 K | – | 625.43
468.15 K | – | 630.19
473.15 K | – | 634.94

CCCCCCCCCC [decane]
molar heat capacity at constant pressure [J/K/mol]
Conditions | 120 kPa | 10170 kPa
323.15 K | 326.25 | 322.98
328.15 K | 328.24 | 325.68
333.15 K | 330.52 | 328.39
338.15 K | 333.22 | 330.95
343.15 K | 336.21 | 333.65
348.15 K | 339.06 | 336.35
353.15 K | 341.9 | 339.06
358.15 K | 344.46 | 342.05
363.15 K | 346.88 | 344.61
368.15 K | 349.73 | 347.31
373.15 K | 352.72 | 350.3
378.15 K | 355.56 | 353
383.15 K | 358.55 | 355.7
388.15 K | 361.68 | 358.41
393.15 K | 364.81 | 361.4
398.15 K | 367.8 | 364.24
403.15 K | 371.21 | 367.09
408.15 K | – | 370.07
413.15 K | – | 372.78
418.15 K | – | 375.77
423.15 K | – | 379.32
428.15 K | – | 382.6

CCCCCCCCCCCC [dodecane]
molar heat capacity at constant pressure [J/K/mol]
Conditions | 100 kPa | 10180 kPa
323.15 K | 386.32 | 385.13
328.15 K | 389.56 | 388.02
333.15 K | 392.79 | 391.26
338.15 K | 395.86 | 394.33
343.15 K | 399.09 | 397.39
348.15 K | 402.33 | 400.46
353.15 K | 405.57 | 403.52
358.15 K | 408.8 | 406.93
363.15 K | 412.04 | 410
368.15 K | 415.28 | 413.23
373.15 K | 418.85 | 416.13
378.15 K | 422.09 | 419.36
383.15 K | 425.5 | 422.6
388.15 K | 428.73 | 426.01
393.15 K | 432.31 | 429.07
398.15 K | 435.38 | 433.16
403.15 K | 438.78 | 435.89
408.15 K | 442.53 | 438.78
413.15 K | 445.77 | 441.68
418.15 K | 449.34 | 444.06
423.15 K | 452.92 | 447.64
428.15 K | 456.5 | 450.88
433.15 K | 460.59 | 454.28
438.15 K | 465.35 | 458.2
443.15 K | – | 462.12
448.15 K | – | 465.7
453.15 K | – | 469.95

CCCCCCCC [octane]
molar heat capacity at constant pressure [J/K/mol]
Conditions | 100 kPa | 10130 kPa
323.15 K | 263.3 | 260.9
328.15 K | 265.7 | 263.18
333.15 K | 267.98 | 265.58
338.15 K | 270.38 | 267.75
343.15 K | 272.66 | 270.04
348.15 K | 275.18 | 272.32
353.15 K | 277.58 | 274.49
358.15 K | 280.09 | 277
363.15 K | 282.6 | 279.17
368.15 K | 285.11 | 281.57
373.15 K | 287.86 | 283.97
378.15 K | 290.37 | 286.49
383.15 K | 293.45 | 288.88
388.15 K | – | 290.94
393.15 K | – | 292.88
398.15 K | – | 295.97

CCCCCCCCCCCCCC [tetradecane]
molar heat capacity at constant pressure [J/K/mol]
Conditions | 120 kPa | 10120 kPa
323.15 K | 449.55 | 447.76
328.15 K | 452.72 | 451.13
333.15 K | 456.09 | 454.51
338.15 K | 459.47 | 457.88
343.15 K | 463.04 | 461.25
348.15 K | 466.61 | 464.82
353.15 K | 470.38 | 468.2
358.15 K | 474.15 | 471.97
363.15 K | 477.72 | 475.54
368.15 K | 481.49 | 478.91
373.15 K | 485.26 | 483.07
378.15 K | 489.03 | 486.45
383.15 K | 492.8 | 489.82
388.15 K | 496.76 | 493.19
393.15 K | 500.14 | 497.16
398.15 K | 504.5 | 500.73
403.15 K | 508.27 | 503.71
408.15 K | 512.44 | 508.47
413.15 K | 515.81 | 511.64
418.15 K | 519.58 | 515.41
423.15 K | 523.35 | 518.78
428.15 K | 527.12 | 522.16
433.15 K | 530.89 | 525.93
438.15 K | 535.25 | 529.3
443.15 K | 539.81 | 533.47
448.15 K | 543.58 | 537.63
453.15 K | 547.95 | 541.6
458.15 K | 554.1 | 545.77
463.15 K | 559.65 | 550.33
468.15 K | – | 553.9
473.15 K | – | 558.07
478.15 K | – | 562.83
483.15 K | – | 566.79

CCCCCC [hexane]
molar heat capacity at constant pressure [J/K/mol]
Conditions | 323.15 K | 328.15 K | 333.15 K | 338.15 K | 343.15 K | 348.15 K | 353.15 K | 358.15 K | 363.15 K | 368.15 K
140 kPa | 203.63 | 205.7 | 207.85 | – | – | – | – | – | – | –
10090 kPa | 200.62 | 202.43 | 204.49 | 206.13 | 208.11 | 210.1 | 211.91 | 214.15 | 216.04 | 218.37
